Assay [1] addresses T1, rat B1R (Rattus norvegicus, UniProt P97583).
T1 construct: expressed in transfected cells; host or cells: CHO K1 cells
T1 sequence (P97583 1-337): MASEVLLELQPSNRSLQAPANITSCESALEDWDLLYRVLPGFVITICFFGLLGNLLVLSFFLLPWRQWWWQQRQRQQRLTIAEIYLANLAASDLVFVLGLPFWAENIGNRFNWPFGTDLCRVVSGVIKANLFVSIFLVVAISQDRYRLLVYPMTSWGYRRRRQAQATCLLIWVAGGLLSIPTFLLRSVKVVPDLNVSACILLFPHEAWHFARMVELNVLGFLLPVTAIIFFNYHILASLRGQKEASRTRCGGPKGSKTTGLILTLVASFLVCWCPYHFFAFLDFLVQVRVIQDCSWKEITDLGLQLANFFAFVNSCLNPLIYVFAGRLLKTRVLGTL
The experiment in a line: FLIPR Ca2+ functional study on bradykinin receptor 1 (rB1R CHO K1 cells). The assay is classed as cell-based. The note with it: for inhibition at 10 µM: CHO-K1, % inhibition rat B1R at 10 μM, read-out: % inh. (rat B1R) 10 μM. In a few lines: (§1)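 CHO K1 cells stably expressing human or rat B1R were loaded with Fluo-4 and read on FLIPR (ex 488/em 540 nm, peak counts). Test compound (10 μM, or a concentration range for IC50) was added first for % activation versus control agonist; after 10-20 min, EC80 Lys-Des-Arg9-bradykinin (human) or Des-Arg9-bradykinin (rat) was added, giving % inhibition of maximum. n=2-3, N≥2.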

Assay [2] has as its target T2, human B1R (Homo sapiens, UniProt P46663).
T2 construct: expressed in transfected cells; host or cells: CHO K1 cells
T2 sequence (P46663 1-353): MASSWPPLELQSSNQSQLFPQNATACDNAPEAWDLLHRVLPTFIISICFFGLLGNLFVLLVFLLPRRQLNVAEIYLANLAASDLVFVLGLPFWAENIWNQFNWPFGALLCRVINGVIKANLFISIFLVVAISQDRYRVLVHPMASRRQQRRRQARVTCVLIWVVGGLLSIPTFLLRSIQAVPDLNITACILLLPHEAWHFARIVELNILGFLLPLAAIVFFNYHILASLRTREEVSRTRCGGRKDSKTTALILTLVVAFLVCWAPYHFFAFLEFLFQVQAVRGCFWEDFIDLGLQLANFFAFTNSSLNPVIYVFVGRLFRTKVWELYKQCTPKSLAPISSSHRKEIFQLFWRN
The experiment in a line: FLIPR Ca2+ functional study on bradykinin receptor 1 (hB1R CHO K1 cells). The assay is classed as cell-based. Particulars: % inhibition human B1R at 10 μM, read-out: % inh. (hum. B1R) 10 μM. In a few lines:
as §1

Structures can show the parent of a compound that is named as a salt.

Consider `COc1cc(C)c(S(=O)(=O)N2CCC[C@H]2COc2nccc(N3CCC4(CCN(Cc5ccccc5)C4)C3)n2)c(C)c1` (stereo partly drawn) [G_CC-032, 3-benzyl-7-[2-[[(2S)-1-(4-methoxy-2,6-dimethylphenyl)sulfonyl-2-pyrrolidinyl]methoxy]-4-pyrimidinyl]-3,7-diazaspiro[4.4]nonane], for which the inhibition at 10 µM was determined as 105% in assay [1] and 86% in assay [2].

In the case of `COc1cc(C)c(S(=O)(=O)N(CCCOc2nccc(N3CCC4(CCN(c5ccncc5)CC4)CC3)n2)C2CC2)c(C)c1` [Example G-025, N-cyclopropyl-4-methoxy-2,6-dimethyl-N-[3-[4-(9-pyridin-4-yl-3,9-diazaspiro[5.5]undecan-3-yl)-pyrimidin-2-yl]oxy-propyl]-benzenesulfonic acid amide], the inhibition at 10 µM in assay [1] is 104%; in assay [2], 92%.

For `COc1cc(C)c(S(=O)(=O)N(C)C(COc2nccc(N3CCC4(CCN(Cc5ccc(F)cc5)C4=O)CC3)n2)c2ccccc2)c(C)c1` (stereo not shown) [G_CC-060, N-[2-[[4-[3-[(4-fluorophenyl)methyl]-4-oxo-3,8-diazaspiro[4.5]decan-8-yl]-2-pyrimidinyl]oxy]-1-phenylethyl]-4-methoxy-N,2,6-trimethylbenzenesulfonamide], the inhibition at 10 µM in assay [1] was found to be 88%; in assay [2], 17%.

For the compound `COc1cc(C)c(S(=O)(=O)N(C)CCOc2ccnc(N(C)CCN3CCC(c4ccccc4)(N(C)C)CC3)n2)c(C)c1` [Example H-003, N-[2-[[2-[2-(4-dimethylamino-4-phenyl-1-piperidinyl)ethyl-methylamino]-4-pyrimidinyl]oxy]ethyl]-4-methoxy-N,2,6-trimethylbenzenesulfonamide], the “% inh. (rat B1R) 10 μM” value in assay [1] (% inhibition rat B1R at 10 μM, 10 µM) was found to be 71%. Besides, the inhibition at 10 µM in assay [2] amounted to 90%.

As for `COc1cc(C)c(S(=O)(=O)N(CCOc2nccc(N3CCC4(CCN(c5ccncc5)CC4)CC3)n2)C2CC2)c(C)c1` [Example G-005, N-cyclopropyl-4-methoxy-2,6-dimethyl-N-[2-[[4-[9-(4-pyridyl)-3,9-diazaspiro[5.5]undecan-3-yl]-2-pyrimidinyl]oxy]ethyl]benzenesulfonamide hydrochloride], the inhibition at 10 µM turned out to be 96% in assay [1] and 99% in assay [2].

As to `COc1cc(C)c(S(=O)(=O)N2CCCCC2COc2nccc(N3CCN(C4CCN(C)CC4)CC3)n2)c(C)c1` (stereo not shown) [G_CC-002, 2-[[1-(4-methoxy-2,6-dimethylphenyl)sulfonyl-2-piperidinyl]methoxy]-4-[4-(1-methyl-4-piperidinyl)-1-piperazinyl]pyrimidine], the inhibition at 10 µM worked out at 101% in assay [1] and 99% in assay [2].

Regarding `COc1cc(C)c(S(=O)(=O)N2CCCCC2COc2nccc(N3CCC4(CCN(Cc5ccc(F)cc5)C4=O)CC3)n2)c(C)c1` (stereo not shown) [G_CC-039, 3-[(4-fluorophenyl)methyl]-8-[2-[[1-(4-methoxy-2,6-dimethylphenyl)sulfonyl-2-piperidinyl]methoxy]-4-pyrimidinyl]-3,8-diazaspiro[4.5]decan-4-one], the inhibition at 10 µM in assay [1] was 99%; in assay [2] it was 58%.

`COc1cc(C)c(S(=O)(=O)N(C)CCOc2ccnc(N3CCN(c4ccncc4)CC3)n2)c(C)c1` [Example H-002]: the inhibition at 10 µM in assay [1] came out at 51%; in assay [2], 81%.

On to `COc1cc(C)c(S(=O)(=O)N2CCC[C@H]2COc2nccc(N3CCC4(CCN(c5ccncc5)CC4)CC3)n2)c(C)c1` [G_CC-055, 9-[2-[[(2S)-1-(4-methoxy-2,6-dimethylphenyl)sulfonyl-2-pyrrolidinyl)methoxy]-4-pyrimidinyl]-3-(4-pyridyl)-3,9-diazaspiro[5.5]undecane], for which the inhibition at 10 µM in assay [1] stood at 101%; in assay [2], 97%.

`COc1cc(C)c(S(=O)(=O)N2CCCC(Oc3nccc(N4CCC5(CCN(c6ccncc6)CC5)CC4)n3)C2)c(C)c1` (stereo not shown) [G_CC-041, 9-[2-[[1-(4-methoxy-2,6-dimethylphenyl)sulfonyl-3-piperidinyl]oxy]-4-pyrimidinyl]-3-(4-pyridyl)-3,9-diazaspiro[5.5]undecane]: the inhibition at 10 µM in assay [1] stood at 101%; in assay [2], 96%.

`COc1cc(C)c(S(=O)(=O)N2CCCC[C@H]2COc2nccc(N3CCC4(CCN(c5ccncc5)CC4)CC3)n2)c(C)c1` [Example G-026, 3-[2-[[(2S)-1-[(4-methoxy-2,6-dimethyl-phenyl)sulfonyl]-piperidin-2-yl]-methoxy]-pyrimidin-4-yl]-9-pyridin-4-yl-3,9-diazaspiro[5.5]undecane]: the inhibition at 10 µM was 101% in assay [1] and 98% in assay [2].

For the compound `COc1cc(C)c(S(=O)(=O)N2CCC[C@H]2COc2nccc(N3CCC4(CCN(Cc5ccc(F)cc5)C4=O)CC3)n2)c(C)c1` [G_CC-051, 3-[(4-fluorophenyl)methyl]-8-[2-[[(2S)-1-(4-methoxy-2,6-dimethylphenyl)sulfonyl-2-pyrrolidinyl]methoxy]-4-pyrimidinyl]-3,8-diazaspiro[4.5]decan-4-one], the inhibition at 10 µM worked out at 98% in assay [1] and 38% in assay [2].

Regarding `COc1cc(C)c(S(=O)(=O)N(C)C(COc2ccnc(N3CCC4(CCN(c5ccncc5)CC4)CC3)n2)c2ccccc2)c(C)c1` (stereo not shown) [H_CC-037, 4-methoxy-N,2,6-trimethyl-N-[1-phenyl-2-[[2-[3-(4-pyridyl)-3,9-diazaspiro[5.5]undecan-9-yl]-4-pyrimidinyl]oxy]ethyl]benzenesulfonamide], the inhibition at 10 µM in assay [1] came out at 102%; in assay [2] it was 54%.

`COc1cc(C)c(S(=O)(=O)N(CCOc2nccc(N3CCC4(CCN(c5ccncc5)CC4)C3)n2)C2CC2)c(C)c1` [Example G-019, N-cyclopropyl-4-methoxy-2,6-dimethyl-N-[2-[[4-[8-(4-pyridyl)-3,8-diazaspiro[4.5]decan-3-yl]-2-pyrimidinyl]oxy]ethyl]benzenesulfonamide]: the results for the inhibition at 10 µM in assay [1] and in assay [2] were 102% and 100%, respectively.

As to `COc1cc(C)c(S(=O)(=O)N(CCOc2nccc(N3CCC4(CCN(c5ccncc5)C4)C3)n2)C2CC2)c(C)c1` (stereo not shown) [Example G-014, N-cyclopropyl-4-methoxy-2,6-dimethyl-N-[2-[[4-[8-(4-pyridyl)-3,8-diazaspiro[4.4]nonan-3-yl]-2-pyrimidinyl]oxy]ethyl]benzenesulfonamide], the inhibition at 10 µM in assay [1] is 102%; in assay [2], 100%.

In the case of `COc1cc(C)c(S(=O)(=O)NC2(COc3nccc(N4CCC5(CCN(c6ccncc6)CC5)CC4)n3)CCC2)c(C)c1` [Example G-022, 4-methoxy-2,6-dimethyl-N-[1-[[4-(9-pyridin-4-yl-3,9-diazaspiro[5.5]undecan-3-yl)-pyrimidin-2-yl]oxy-methyl]-cyclobutyl]-benzenesulfonic acid amide], the inhibition at 10 µM was 103% in assay [1] and 100% in assay [2].

In the case of `COc1cc(C)c(S(=O)(=O)N(C)CCOc2nccc(N3CCN(C4CCN(C)CC4)CC3)n2)c(C)c1` [G_CC-001, 4-methoxy-N,2,6-trimethyl-N-[2-[[4-[4-(1-methyl-4-piperidinyl)-1-piperazinyl]-2-pyrimidinyl]oxy]ethyl]benzenesulfonamide], the inhibition at 10 µM in assay [1] is 97%; in assay [2], 98%.

These data come from patent US8269000B2, “Substituted pyrimidine and triazine compounds” (Gruenenthal GmbH, priority 2008, dated 2012).
